In PubChem BioAssay (NCI):
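Grown in 96-well plates, cells were treated for 48 hours with each compound at five concentrations. Insufficient inhibition: endpoint recorded as highest concentration tested. Abbreviation: GI50, concentration required for 50% inhibition of growth. TGI is the concentration that stops growth completely.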

Key:
Test in all cases: NCI anticancer screen, dose series, 48 h
NCI-H522 lung = test system: NCI-H522 lung
PC-3 prostate = test system: PC-3 prostate
CCRF-CEM leukemia = test system: CCRF-CEM leukemia
SF-539 CNS = test system: SF-539 CNS
SW-620 colon = test system: SW-620 colon
HOP-62 NSCLC = test system: HOP-62 NSCLC
SNB-75 CNS = test system: SNB-75 CNS
786-0 renal = test system: 786-0 renal
OVCAR-4 ovarian = test system: OVCAR-4 ovarian
SF-268 CNS = test system: SF-268 CNS
OVCAR-8 ovarian = test system: OVCAR-8 ovarian
EKVX NSCLC = test system: EKVX NSCLC
DU-145 prostate = test system: DU-145 prostate
HCT-116 colon = test system: HCT-116 colon
NCI/ADR-RES ovarian = test system: NCI/ADR-RES ovarian
OVCAR-3 ovarian = test system: OVCAR-3 ovarian
K-562 leukemia = test system: K-562 leukemia
SK-MEL-28 melanoma = test system: SK-MEL-28 melanoma
UACC-257 melanoma = test system: UACC-257 melanoma
TK-10 renal = test system: TK-10 renal
SF-295 CNS = test system: SF-295 CNS
HCC-2998 colon = test system: HCC-2998 colon
SK-MEL-2 melanoma = test system: SK-MEL-2 melanoma
NCI-H23 lung = test system: NCI-H23 lung
RPMI-8226 leukemia = test system: RPMI-8226 leukemia
SK-MEL-5 melanoma = test system: SK-MEL-5 melanoma
LOX IMVI melanoma = test system: LOX IMVI melanoma
KM12 colon = test system: KM12 colon
ACHN renal = test system: ACHN renal
SNB-19 CNS = test system: SNB-19 CNS
HOP-92 NSCLC = test system: HOP-92 NSCLC
U251 CNS = test system: U251 CNS
RXF 393 renal = test system: RXF 393 renal
NCI-H460 lung = test system: NCI-H460 lung
SK-OV-3 ovarian = test system: SK-OV-3 ovarian
HT29 colon = test system: HT29 colon
HCT-15 colon = test system: HCT-15 colon
MALME-3M melanoma = test system: MALME-3M melanoma
MOLT-4 leukemia = test system: MOLT-4 leukemia
BT-549 breast = test system: BT-549 breast
CAKI-1 renal = test system: CAKI-1 renal
OVCAR-5 ovarian = test system: OVCAR-5 ovarian
T-47D breast = test system: T-47D breast
HL-60(TB) leukemia = test system: HL-60(TB) leukemia
UO-31 renal = test system: UO-31 renal
MDA-MB-435 = test system: MDA-MB-435
IGROV1 ovarian = test system: IGROV1 ovarian
COLO 205 colon = test system: COLO 205 colon
HS 578T breast = test system: HS 578T breast
MCF7 breast = test system: MCF7 breast
A549 NSCLC = test system: A549 NSCLC

`N#Cc1c(-c2ccccc2)n([O-])c2ccccc2[n+]1=O` showed a GI50 (NCI-H522 lung) of 26.9 µM, a TGI (NCI-H522 lung) of 75.1 µM and a GI50 (PC-3 prostate) of 26.4 µM. For the same compound, the TGI (PC-3 prostate) was 79.8 µM, the GI50 (CCRF-CEM leukemia) was 22.2 µM and the TGI (CCRF-CEM leukemia) was 46.1 µM. For the same compound, the GI50 (SF-539 CNS) was 32.1 µM, the TGI (SF-539 CNS) was 60.8 µM and the GI50 (SW-620 colon) was 35.3 µM. The TGI (SW-620 colon) was > 100 µM, the GI50 (HOP-62 NSCLC) was 20.2 µM and the TGI (HOP-62 NSCLC) was 38.7 µM. The GI50 (SNB-75 CNS) was 41.1 µM, the TGI (SNB-75 CNS) was > 100 µM and the GI50 (786-0 renal) was 35.7 µM. The TGI (786-0 renal) was > 100 µM, the GI50 (OVCAR-4 ovarian) was 28.8 µM and the TGI (OVCAR-4 ovarian) was 81.8 µM. It also gave a GI50 (SF-268 CNS) of 24.8 µM, a TGI (SF-268 CNS) of 63.9 µM and a GI50 (OVCAR-8 ovarian) of 32.5 µM. It also gave a TGI (OVCAR-8 ovarian) of 91.3 µM, a GI50 (EKVX NSCLC) of 28.2 µM and a TGI (EKVX NSCLC) of 58 µM. The GI50 (DU-145 prostate) was 22.4 µM, the TGI (DU-145 prostate) was 51.2 µM and the GI50 (HCT-116 colon) was 19.5 µM. The TGI (HCT-116 colon) was 34.8 µM, the GI50 (NCI/ADR-RES ovarian) was 21.1 µM and the TGI (NCI/ADR-RES ovarian) was 44.8 µM. It also gave a GI50 (OVCAR-3 ovarian) of 22.3 µM, a TGI (OVCAR-3 ovarian) of 42.9 µM and a GI50 (K-562 leukemia) of 20.6 µM. The TGI (K-562 leukemia) was 37.1 µM, the GI50 (SK-MEL-28 melanoma) was 65.7 µM and the TGI (SK-MEL-28 melanoma) was > 100 µM. The GI50 (UACC-257 melanoma) was 21.4 µM, the TGI (UACC-257 melanoma) was 40.1 µM and the GI50 (TK-10 renal) was 29.4 µM. It also gave a TGI (TK-10 renal) of 68.4 µM, a GI50 (SF-295 CNS) of 24.4 µM and a TGI (SF-295 CNS) of 56.4 µM. It also gave a GI50 (HCC-2998 colon) of 17 µM, a TGI (HCC-2998 colon) of 34 µM and a GI50 (SK-MEL-2 melanoma) of 62.6 µM. For the same compound, the TGI (SK-MEL-2 melanoma) was > 100 µM, the GI50 (NCI-H23 lung) was 20.3 µM and the TGI (NCI-H23 lung) was 40.3 µM. The GI50 (RPMI-8226 leukemia) was 21.1 µM, the TGI (RPMI-8226 leukemia) was 42.2 µM and the GI50 (SK-MEL-5 melanoma) was 20.1 µM. For the same compound, the TGI (SK-MEL-5 melanoma) was 38.5 µM, the GI50 (LOX IMVI melanoma) was 18.7 µM and the TGI (LOX IMVI melanoma) was 35.1 µM. It also gave a GI50 (KM12 colon) of 16.2 µM, a TGI (KM12 colon) of 32.2 µM and a GI50 (ACHN renal) of 19.9 µM. The TGI (ACHN renal) was 37.5 µM, the GI50 (SNB-19 CNS) was 67.1 µM and the TGI (SNB-19 CNS) was > 100 µM. For the same compound, the GI50 (HOP-92 NSCLC) was 21.8 µM, the TGI (HOP-92 NSCLC) was 45.4 µM and the GI50 (U251 CNS) was 24.7 µM. For the same compound, the TGI (U251 CNS) was 60.7 µM, the GI50 (RXF 393 renal) was 42.8 µM and the TGI (RXF 393 renal) was > 100 µM. It also gave a GI50 (NCI-H460 lung) of 20.7 µM, a TGI (NCI-H460 lung) of 45.9 µM and a GI50 (SK-OV-3 ovarian) of 51.7 µM. The TGI (SK-OV-3 ovarian) was > 100 µM, the GI50 (HT29 colon) was 38.8 µM and the TGI (HT29 colon) was > 100 µM. The GI50 (HCT-15 colon) was 21.4 µM, the TGI (HCT-15 colon) was 48.3 µM and the GI50 (MALME-3M melanoma) was 21.3 µM. For the same compound, the TGI (MALME-3M melanoma) was 37.1 µM, the GI50 (MOLT-4 leukemia) was 10.2 µM and the TGI (MOLT-4 leukemia) was 27.2 µM. The GI50 (BT-549 breast) was 25.1 µM, the TGI (BT-549 breast) was 57.3 µM and the GI50 (CAKI-1 renal) was 20.1 µM. It also gave a TGI (CAKI-1 renal) of 34.7 µM, a GI50 (OVCAR-5 ovarian) of 28.1 µM and a TGI (OVCAR-5 ovarian) of 74.2 µM. For the same compound, the GI50 (T-47D breast) was 30.1 µM, the TGI (T-47D breast) was 83.7 µM and the GI50 (HL-60(TB) leukemia) was 25.2 µM. The TGI (HL-60(TB) leukemia) was 47.9 µM, the GI50 (UO-31 renal) was 33.9 µM and the TGI (UO-31 renal) was > 100 µM. It also gave a GI50 (MDA-MB-435) of 19.7 µM, a TGI (MDA-MB-435) of 36.3 µM and a GI50 (IGROV1 ovarian) of 36.9 µM. For the same compound, the TGI (IGROV1 ovarian) was > 100 µM, the GI50 (COLO 205 colon) was 35.5 µM and the TGI (COLO 205 colon) was > 100 µM. For the same compound, the GI50 (HS 578T breast) was 26.8 µM, the TGI (HS 578T breast) was 70 µM and the GI50 (MCF7 breast) was 33.2 µM. The TGI (MCF7 breast) was > 100 µM, the GI50 (A549 NSCLC) was 22 µM and the TGI (A549 NSCLC) was 50.9 µM.
